Experimental data reported in PubChem BioAssay AID504463 (NMMLSC, 2011).
The source made the active and inactive calls.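 Rule for the calls: active = fluorescence span above 25 thousand equivalent fluorochrome units, or a 33 microM versus DMSO difference score above 25; inactive = the rest.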

System: S. cerevisiae s288c autofluorescence, flow cytometry 520 nm, 3 h
Assay: yeast autofluorescence interference at GFP wavelength, dose response, artefact control for yeast TOR pathway modulator project, flow cytometry, strain s288c, KU SAR set 2, multiplex (AID 504463)
Conditions: at 33.3 µM; active compounds read high

Fluorescence change (kMESF span), inactive:
CCNc1nc(N)c([N+](=O)[O-])c(Nc2cccc(Cl)c2)n1 0.49
COc1ccccc1-c1cc(Nc2cc(C)[nH]n2)nc(NCc2ccccc2)n1 0.06
CNc1nc(N)cc(Oc2cccc(Cl)c2)n1 0.06
Cc1cc(Nc2cc(-c3ccccc3)nc(NCc3ccccc3)n2)n[nH]1 0.06
CNc1nc(N)c(C(=O)c2ccc(C)c(C)c2)c(Nc2cccc(Cl)c2)n1 0.07
COc1cccc(-c2cc(Nc3cc(C)[nH]n3)nc(NCc3ccccc3)n2)c1 0.13
CNc1nc(N)c([N+](=O)[O-])c(Nc2ccccc2F)n1 0.07
O=[N+]([O-])c1c(NC2CCCCC2)nc(NCc2ccccc2)nc1N1CCOCC1 0
CNc1nc(NC)c([N+](=O)[O-])c(Nc2cccc(Cl)c2)n1 0.07
CNc1nc(NC2CCCCC2)c([N+](=O)[O-])c(N2CCOCC2)n1 0.14
CNc1nc(N)c([N+](=O)[O-])c(Nc2cccc(Br)c2)n1 0.07
CCOC(=O)c1c(N)nc(NC)nc1Nc1cccc(F)c1 0.13
CNc1nc(N)cc(Nc2ccccc2F)n1 0
Cc1cc(Nc2cc(Nc3ccccc3)nc(NCc3ccccc3)n2)n[nH]1 0.07
CCNc1nc(NC2CCCCC2)c([N+](=O)[O-])c(N2CCOCC2)n1 0
COC(=O)c1cccc(-c2cc(Nc3cc(C)[nH]n3)nc(NCc3ccccc3)n2)c1 0.06
CNc1nc(N)c([N+](=O)[O-])c(Nc2cccc(Oc3ccccc3)c2)n1 0.07
CNc1nc(N)cc(Nc2cccc(Cl)c2)n1 0.06
CNc1nc(N)c([N+](=O)[O-])c(Nc2cccc(OC)c2)n1 0.14
CNc1nc(N)c([N+](=O)[O-])c(Nc2ccccc2Br)n1 0.07
